From publication PMC11855478, “Bicyclic N,S-Acetals Containing Fused Cysteine-Amide System as New Heterocyclic Class Targeting Human Farnesyltransferase (FTase-h)” (International Journal of Molecular Sciences, 2025) come the findings set out here.

Format in all cases: cell-based, human
For experiment [1], the system named is NCI-H522 non-small cell lung cancer cells. Nature of the experiment: NCI cell proliferation, NCI-H522. To be noted: for inhibition at 10 µM / GI50: Homo sapiens, NCI-H522; for inhibition at 10 µM: read-out: % Cancer cell growth Inhibition (NCI-H522); for Growth Percent: NCI-H522, 1.00E-5 Molar one dose. The procedure: (§1) 3.4. Cell Proliferation Assay
(§2) Selected compounds were tested on a panel of 60 human cancer cell lines at the National Cancer Institute (NCI), Germantown, MD, USA. The cytotoxicity studies were conducted using a 48 h exposure protocol using the sulfo-rhodamine B assay.

Experiment [2] deals with HL-60(TB) (Leukemia). Nature of the experiment: NCI one dose, HL-60(TB). Conditions: 1.00E-5 Molar one dose. The procedure: as §1, §2
Experiment [3] deals with NCI-H226 (Non-Small Cell Lung Cancer). Nature of the experiment: NCI one dose, NCI-H226. To be noted: NCI-H226, 1.00E-5 Molar one dose. As to the method: as §1, §2

Take `COc1ccccc1CNC(=O)[C@@H]1CS[C@@]2(C)c3ccccc3C(=O)N12` [4bG]: in experiment [1], the inhibition at 10 µM was 30% and the “Growth Percent” value came out at 70.03%.
Take `COc1ccc(CNC(=O)[C@@H]2CS[C@H]3c4ccccc4C(=O)N23)cc1OC` [4aI]: in experiment [1], the GI50 worked out at 20.8 µM, the inhibition at 10 µM worked out at 36% and the “Growth Percent” value was 63.65%.
`C[C@@]12SC[C@@H](C(=O)NCc3ccccc3Br)N1C(=O)c1ccccc12` [4bB]: in experiment [1], the inhibition at 10 µM was 22% and the “Growth Percent” value is given as 78.46%.
As for `COc1ccc(CNC(=O)[C@@H]2CS[C@H]3c4ccccc4C(=O)N23)cc1` [4aF], the “Growth Percent” value was 97.30% in experiment [2], 101.53% in experiment [3] and 87.40% in experiment [1]. Moreover, in experiment [1], the inhibition at 10 µM turned out to be 13%.
As to `C[C@@]12SC[C@@H](C(=O)NCc3ccc(Cl)cc3Cl)N1C(=O)c1ccccc12` [4bH], in experiment [1], the inhibition at 10 µM stood at 28% and the “Growth Percent” value worked out at 71.73%.
As to `C[C@@]12SC[C@@H](C(=O)NCc3ccccc3)N1C(=O)c1ccccc12` [4bA], in experiment [1], the inhibition at 10 µM turned out to be 25% and the “Growth Percent” value is recorded as 74.90%.
As to `COc1cccc(CNC(=O)[C@@H]2CS[C@@]3(C)c4ccccc4C(=O)N23)c1` [4bE], in experiment [1], the inhibition at 10 µM turned out to be 33% and the “Growth Percent” value amounted to 67.45%.
Regarding `C[C@@]12SC[C@@H](C(=O)NCc3ccccc3C(F)(F)F)N1C(=O)c1ccccc12` [4bC], in experiment [1], the inhibition at 10 µM turned out to be 19% and the “Growth Percent” value worked out at 80.71%.
Consider `COc1cc(CNC(=O)[C@@H]2CS[C@H]3c4ccccc4C(=O)N23)cc(OC)c1OC` [4aJ], for which the “Growth Percent” value stood at 96.47% in experiment [2], 97.62% in experiment [3] and 83.00% in experiment [1]. Moreover, the inhibition at 10 µM in experiment [1] was determined as 17%.
Take `COc1cc(CNC(=O)[C@@H]2CS[C@@]3(C)c4ccccc4C(=O)N23)cc(OC)c1OC` [4bJ]: in experiment [1], the inhibition at 10 µM turned out to be 31% and the “Growth Percent” value is 68.76%.
With `COc1ccc(CNC(=O)[C@@H]2CS[C@@]3(C)c4ccccc4C(=O)N23)cc1OC` [4bI], in experiment [1], it took 12.9 µM to inhibit growth by half (GI50), the inhibition at 10 µM worked out at 45% and the “Growth Percent” value came to 54.70%.
As to `O=C(NCc1cccc(C(F)(F)F)c1)[C@@H]1CS[C@H]2c3ccccc3C(=O)N12` [4aD], the “Growth Percent” value was found to be 96.47% in experiment [2], 100.68% in experiment [3] and 74.73% in experiment [1]. In experiment [1], the inhibition at 10 µM amounted to 25%.
In the case of `COc1ccccc1CNC(=O)[C@@H]1CS[C@H]2c3ccccc3C(=O)N12` [4aG], in experiment [1], the inhibition at 10 µM is 30% and the “Growth Percent” value is 69.93%.
As for `C[C@@]12SC[C@@H](C(=O)NCc3cccc(C(F)(F)F)c3)N1C(=O)c1ccccc12` [4bD], in experiment [1], the inhibition at 10 µM came out at 31% and the “Growth Percent” value was 68.93%.
`O=C(NCc1ccccc1C(F)(F)F)[C@@H]1CS[C@H]2c3ccccc3C(=O)N12` [4aC]: the “Growth Percent” value in experiment [2] turned out to be 101.08%; in experiment [3] it was 95.46%; in experiment [1], 78.18%. In addition, in experiment [1], the inhibition at 10 µM turned out to be 22%.
With `O=C(NCc1ccccc1)[C@@H]1CS[C@H]2c3ccccc3C(=O)N12` [4aA], the “Growth Percent” value in experiment [2] came to 102.43%; in experiment [3], 86.94%; in experiment [1], 79.32%. The inhibition at 10 µM in experiment [1] was found to be 13%.
With `O=C(NCc1ccc(Cl)cc1Cl)[C@@H]1CS[C@H]2c3ccccc3C(=O)N12` [4aH], the entries for the “Growth Percent” value in experiment [2], in experiment [3] and in experiment [1] were 93.16%, 95.83% and 72.97%, respectively. For the same compound, in experiment [1], the inhibition at 10 µM worked out at 27%.
For the compound `COc1ccc(CNC(=O)[C@@H]2CS[C@@]3(C)c4ccccc4C(=O)N23)cc1` [4bF], in experiment [1], the inhibition at 10 µM is 28% and the “Growth Percent” value was determined as 72.32%.
The like results for `COc1cccc(CNC(=O)[C@@H]2CS[C@H]3c4ccccc4C(=O)N23)c1` [4aE] were, in that order, 26% and 74.09%.
